Experimental data: US7632782B2, “Synergistically acting herbicidal mixtures” (BASF Aktiengesellschaft, priority 2002, dated 2009)

Legend:
Type in all cases: in vivo
Pharbitis purpurea [1] = test: Herbicidal action, post-emergence treatment, greenhouse
From the text: (§1) The mixtures according to the invention were applied pre- and/or post-emergence (foliar treatment). The herbicidal compounds of component B) and, if desired, of component C) as well as the safener D) were applied in the formulation in which they are present as commercially available product (s).
(§2) The herbicidally active compounds of components A), B) and, if desired, C), and, if desired D), were applied in succession or jointly, in the latter case in some cases as a tank mix and in some cases as a readymix, in the form of emulsions, aqueous solutions or suspensions, the vehicle being water (300-400 l/ha). In the case of the field trials, application was effected with the aid of a mobile plot sprayer.
(§3) The test period extended over 3 to 8 weeks, and the stands were also observed at later points in time.
(§4) Damage by the herbicidal compositions was evaluated with reference to a scale of 0% to 100% in comparison with untreated control plots. 0 means no damage and 100 means complete destruction of the plants.
(§5) In these examples, the value […] at which only an additive effect of the individual active ingredients is to be expected was calculated by the method of S. R. Colby (Calculating synergistic and antagonistic responses of herbicide combinations, Weeds 15, 20 pp (1967)).
(§6) [formula] where • X=Percentage of the herbicidal action of component A) at an application rate of a; • Y=Percentage of the herbicidal action of component B), and, if desired, C), and, if desired, D) at an application rate of b, and, if desired, c, and, if desired, d; • E=expected herbicidal action of component A)+B), and, if desired C), and; if desired, D) at rates of application a+b, and, if desired, c and, if desired, d (in %).
(§7) If the value observed exceeds the value E calculated in accordance with Colby's formula, then synergism is present.

Abutilon theophrasti = test: as above
From the text: as §1, §2, §3, §4, §5, §6, §7

Avena fatua = test: as above
From the text: as §1, §2, §3, §4, §5, §6, §7

Bidens pilosa [2] = test: as above; settings: Table 12, application rate 7.81 g/ha ai
From the text: as §1, §2, §3, §4, §5, §6, §7

Galium aparine = test: as above; settings: Table 11, application rate 7.81 g/ha ai
From the text: as §1, §2, §3, §4, §5, §6, §7

Amaranthus retroflexus = test: as above
From the text: as §1, §2, §3, §4, §5, §6, §7

Bidens pilosa [3] = test: Herbicidal action, post-emergence treatment, field
From the text: as §1, §2, §3, §4, §5, §6, §7

Pharbitis purpurea [4] = test: Herbicidal action, post-emergence treatment, field; settings: Table 9, application rate 3.91 g/ha ai
From the text: as §1, §2, §3, §4, §5, §6, §7

Brachiaria plantaginea = test: Herbicidal action, post-emergence treatment, field; settings: Table 15, application rate 3.91 g/ha ai
From the text: as §1, §2, §3, §4, §5, §6, §7

Commelina benghalensis = test: Herbicidal action, post-emergence treatment, field; settings: Table 5, application rate 7.81 g/ha ai
From the text: as §1, §2, §3, §4, §5, §6, §7

Polygonum persicaria = test: Herbicidal action, post-emergence treatment, field; settings: Table 10, application rate 1.95 g/ha ai
From the text: as §1, §2, §3, §4, §5, §6, §7

[5] = Table 3, application rate 1.95 g/ha ai
[6] = Table 4, application rate 0.98 g/ha ai
[7] = Table 3, application rate 3.91 g/ha ai
[8] = Table 4, application rate 1.95 g/ha ai
[9] = Table 6, application rate 3.91 g/ha ai
[10] = Table 8, application rate 1.95 g/ha ai
[11] = Table 14, application rate 3.91 g/ha ai

COc1cc(OC)nc(NC(=O)NS(=O)(=O)c2cc(NC=O)ccc2C(=O)N(C)C)n1 [Compound II, foramsulfuron, reference compound]
Pharbitis purpurea Damage [%] (Pharbitis purpurea [1]; [5]): 80%
Abutilon theophrasti Damage [%] (Abutilon theophrasti; [6]): 30%
Avena fatua Damage [%] (Avena fatua; [5]): 50%
Avena fatua Damage [%] (Avena fatua; [6]): 30%

Cc1c(C(=O)c2cnn(C)c2O)ccc(S(C)(=O)=O)c1C1=NOCC1 [Ia.29, 4-[2-methyl-3-(4,5-dihydroisoxazol-3-yl)-4-methylsulfonyl-benzoyl]-1-methyl-5-hydroxy-1H-pyrazole]
Bidens pilosa Damage [%] (Bidens pilosa [2]): 60%
Pharbitis purpurea Damage [%] (Pharbitis purpurea [1]; [7]): 70%
Galium aparine Damage [%] (Galium aparine): 30%
Abutilon theophrasti Damage [%] (Abutilon theophrasti; [8]): 40%
Abutilon theophrasti Damage [%] (Abutilon theophrasti; [9]): 80%
Abutilon theophrasti Damage [%] (Abutilon theophrasti; [10]): 40%
Abutilon theophrasti Damage [%] (Abutilon theophrasti; Table 11, application rate 7.81 g/ha ai): 95%
Abutilon theophrasti Damage [%] (Abutilon theophrasti; Table 12, application rate 7.81 g/ha ai): 95%
Abutilon theophrasti Damage [%] (Abutilon theophrasti; [11]): 80%
Avena fatua Damage [%] (Avena fatua; [7]): 50%
Avena fatua Damage [%] (Avena fatua; [8]): 25%
Amaranthus retroflexus Damage [%] (Amaranthus retroflexus; [9]): 60%
Amaranthus retroflexus Damage [%] (Amaranthus retroflexus; [10]): 40%
Amaranthus retroflexus Damage [%] (Amaranthus retroflexus; [11]): 60%
Bidens pilosa Damage [%] (Bidens pilosa [3]; Table 7, application rate 3.91 g/ha ai): 30%
Bidens pilosa Damage [%] (Bidens pilosa [3]; Table 13, application rate 7.81 g/ha ai): 60%
Pharbitis purpurea Damage [%] (Pharbitis purpurea [4]): 70%
Brachiaria plantaginea Damage [%] (Brachiaria plantaginea): 80%
Commelina benghalensis Damage [%] (Commelina benghalensis): 40%
Polygonum persicaria Damage [%] (Polygonum persicaria): 95%
